Measured values as given in patent US11000542B2, “Treatment and prevention of the common cold using povidone-iodine” (FIREBRICK PHARMA LIMITED, priority 2014, dated 2021).

Assays:
[1] = test system: colds due to picornaviruses; settings: cited from earlier work
[2] = Intranasal tolerability of aqueous PVP-I preparations (inventors' finding); format: in vivo, human; settings: repeated, frequent use
Excerpt: With respect to the intranasal tolerability of PVP-I, as distinct from ciliotoxicity, the present inventors have discovered that when the concentration of PVP-I in aqueous preparations is greater than 1.0%, the preparation may be irritating to the nasal mucosa in some individuals and not suitable for repeated, frequent and general use, as would be required in the effective treatment or prevention of the common cold. On this consideration, a preferred composition for nasal use is a concentration of PVP-I at or below 1.0%.

[3] = test system: human rhinovirus (HRV); settings: cited from earlier work
[4] = test system: human influenza virus; settings: very low concentrations; Reimer et al (2002); cited from earlier work
[5] = test system: adenovirus; settings: Reimer et al (2002), Wutzler et al (2002); cited from earlier work
[6] = test system: herpes simplex virus (HSV); settings: Wutzler et al (2002); cited from earlier work
[7] = test system: nasal cilia; settings: Kramer et al (2002), cited from earlier work
[8] = test system: granulocytes; settings: Van den Broek et al (1982); cited from earlier work
[9] = test system: monocytes; settings: Van den Broek et al (1982); cited from earlier work
[10] = test system: common cold; settings: throat gargle; cited from earlier work
[11] = typical; cited from earlier work

| Compound | cytochrome P450 induction ([1]; FDA Advisory Committee review of 2002 NDA) | reduction in cold duration ([1]; Phase III data) | Time to Alleviation of Illness (TAI), cold duration ([1]; phase three study, Hayden et al (2003)) | PVP-I concentration in aqueous preparations that may be irritating to the nasal mucosa in some individuals [2] | log reduction in HRV ([3]; 30 second exposure, Wutzler et al (2002)) | reduction in viable virus count ([3]; 30 seconds exposure, any concentration, Reimer et al (2002)) | exposure required for a 4 log reduction (microbicidal effect) ([3]; in vitro, Reimer et al (2002), Wutzler et al (2002)) | microbicidal effect against HRV ([3]; maximum exposure period tested 10 minutes, Kawana et al (1997)) | exposure for a 4 log10 reduction in viable virus count [4] | exposure required for a 4 log reduction (microbicidal effect) [5] | exposure for a microbicidal effect (4 log reduction) [6] | PVP-I concentration toxic to the nasal cilia (ciliotoxic) ([7]; Reimer et al (2002): complete loss of ciliary function) | PVP-I concentration not ciliotoxic / suitable for use in the nose ([7]; Reimer et al (2002)) | PVP-I concentration at which virtually all granulocytes destroyed [8] | PVP-I concentration significantly reducing the viability of granulocytes [8] | PVP-I concentration substantially degrading monocytes [9] | effect of gargling on cold symptoms and incidence [10] | free iodine in PVP-I solutions [11] |
| --- | --- | --- | --- | --- | --- | --- | --- | --- | --- | --- | --- | --- | --- | --- | --- | --- | --- | --- |
| Cc1cc(CCCOc2c(C)cc(-c3noc(C(F)(F)F)n3)cc2C)on1 [pleconaril] | a risk of cytochrome P450 induction | one | 6.3 days |  |  |  |  |  |  |  |  |  |  |  |  |  |  |  |
| povidone-iodine [PVP-I] |  |  |  | greater than 1.0% | 1.1 log | ~1 log | 30 minutes | failed to produce a microbicidal effect against HRV | ≤ 30 second | 5 minutes | 30 seconds | ≥ 2.5% | ≤ 1.25% | above 0.1% | above 0.05% | above 0.1% | no significant effect on nasal cold symptoms or bronchial complications, and no benefit in terms of reducing the incidence of the common cold | less than 30 ppm |
